Patent publication US11236069B2, “KIF18A inhibitors” (AMGEN INC., priority 2018, dated 2022)

Target: Recombinant human KIF18A (1-467 His-tagged) protein (Homo sapiens (Human), UniProt Q8NI77)
Assay: KIF18A Enzyme Assay: microtubule-stimulated ATPase activity (ADP-Glo)
Conditions: read-out: KIF18A ATPase IC50; 30 nM KIF18A, 30 μg/mL pig microtubules, ATP at Km 75 μM, ADP-Glo luminescence
From the text: KIF18A Enzyme Assay: Microtubule-stimulated ATPase activity assay is used to measure KIF18A enzyme activity after treatment with compound. Compounds were 2-fold serially diluted in DMSO (Sigma Inc) over 22-point concentration range. […] The assay measures ADP formed from the ATPase reaction.

Sequence of Recombinant human KIF18A (1-467 His-tagged) protein (Q8NI77 1-467): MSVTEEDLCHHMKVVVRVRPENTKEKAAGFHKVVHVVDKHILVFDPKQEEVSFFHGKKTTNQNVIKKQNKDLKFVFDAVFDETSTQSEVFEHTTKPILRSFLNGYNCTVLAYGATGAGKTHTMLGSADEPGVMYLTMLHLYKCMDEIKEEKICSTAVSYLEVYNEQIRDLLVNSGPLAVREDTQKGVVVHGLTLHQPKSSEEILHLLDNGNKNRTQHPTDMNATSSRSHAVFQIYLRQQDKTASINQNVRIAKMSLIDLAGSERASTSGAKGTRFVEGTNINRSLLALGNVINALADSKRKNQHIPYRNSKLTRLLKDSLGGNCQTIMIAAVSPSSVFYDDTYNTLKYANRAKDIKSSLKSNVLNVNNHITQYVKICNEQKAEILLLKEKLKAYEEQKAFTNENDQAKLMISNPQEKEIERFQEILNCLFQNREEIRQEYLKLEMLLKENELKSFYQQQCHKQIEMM
Sequence of Recombinant human KIF18A (1-467 His-tagged) protein (P02550 whole entry partner): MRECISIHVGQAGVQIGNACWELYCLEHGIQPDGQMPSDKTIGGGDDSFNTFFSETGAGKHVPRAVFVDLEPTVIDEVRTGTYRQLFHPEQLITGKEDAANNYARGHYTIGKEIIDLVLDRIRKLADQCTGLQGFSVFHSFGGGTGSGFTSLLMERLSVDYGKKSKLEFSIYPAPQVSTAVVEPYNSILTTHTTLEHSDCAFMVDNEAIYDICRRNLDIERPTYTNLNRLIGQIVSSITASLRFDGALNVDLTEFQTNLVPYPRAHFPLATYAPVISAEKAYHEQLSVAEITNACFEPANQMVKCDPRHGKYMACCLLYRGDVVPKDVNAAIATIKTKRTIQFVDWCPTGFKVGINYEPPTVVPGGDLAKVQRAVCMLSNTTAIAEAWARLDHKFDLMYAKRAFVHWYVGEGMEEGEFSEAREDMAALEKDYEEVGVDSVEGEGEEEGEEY
Sequence of Recombinant human KIF18A (1-467 His-tagged) protein (P02554 whole entry partner): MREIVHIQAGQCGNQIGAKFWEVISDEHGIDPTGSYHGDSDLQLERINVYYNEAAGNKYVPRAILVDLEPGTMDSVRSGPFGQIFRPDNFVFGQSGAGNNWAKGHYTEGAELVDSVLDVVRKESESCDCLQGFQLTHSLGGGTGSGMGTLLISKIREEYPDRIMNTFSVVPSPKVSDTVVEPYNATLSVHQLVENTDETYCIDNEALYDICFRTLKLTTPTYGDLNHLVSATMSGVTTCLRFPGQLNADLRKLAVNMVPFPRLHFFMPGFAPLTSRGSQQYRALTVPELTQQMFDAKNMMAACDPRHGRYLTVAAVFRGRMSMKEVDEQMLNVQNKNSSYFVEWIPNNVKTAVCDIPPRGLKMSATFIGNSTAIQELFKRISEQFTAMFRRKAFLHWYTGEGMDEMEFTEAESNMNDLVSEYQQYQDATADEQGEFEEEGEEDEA

IC50 [nM]	SMILES
91	Cc1cc(NC(=O)c2cc(F)c(NS(=O)(=O)[C@H](C)CO)cc2N2CCC3(CC2)CC3)nc(N2CCC(F)(F)CC2)n1 (single isomer, unassigned) [Example 8-1]
73	Cc1cc(NC(=O)c2cc(F)c(NS(=O)(=O)[C@@H](C)CO)cc2N2CCC3(CC2)CC3)nc(N2CCC(F)(F)CC2)n1 (single isomer, unassigned) [Example 8-2]
83	Cc1cc(NC(=O)c2ccc(NS(=O)(=O)C[C@@H](C)O)cc2N2CCC3(CC2)CC3)nc(N2CC(F)(F)C2)n1 (single isomer, unassigned) [Example 10-1]
73	Cc1cc(NC(=O)c2ccc(NS(=O)(=O)C[C@H](C)O)cc2N2CCC3(CC2)CC3)nc(N2CC(F)(F)C2)n1 (single isomer, unassigned) [Example 10-2]
20	Cc1cc(NC(=O)c2ccc(NS(=O)(=O)[C@H](C)CO)cc2N2CCC3(CC2)CC3)nc(N2CC(F)(F)C2)n1 (single isomer, unassigned) [Example 11-76]
64	Cc1cc(NC(=O)c2ccc([S@](=N)(=O)C3CC3)cc2N2CCC3(CC2)CC3)nc(N2CCC(F)(F)CC2)n1 (single isomer, unassigned) [Example 18-1, 2-(6-Azaspiro[2.5]octan-6-yl)-4-(R-cyclopropylsulfonimidoyl)-N-(2-(4,4-difluoro-1-piperidinyl)-6-methyl-4-pyrimidinyl)benzamide]
57	Cc1cc(NC(=O)c2ccc([S@@](=N)(=O)C3CC3)cc2N2CCC3(CC2)CC3)nc(N2CCC(F)(F)CC2)n1 (single isomer, unassigned) [Example 18-2, 2-(6-Azaspiro[2.5]octan-6-yl)-4-(S-cyclopropylsulfonimidoyl)-N-(2-(4,4-difluoro-1-piperidinyl)-6-methyl-4-pyrimidinyl)benzamide]
35	CC[S@](=N)(=O)c1ccc(C(=O)Nc2cc(C)nc(N3CCC(F)(F)CC3)n2)c(N2CCC3(CC2)CC3)c1 (single isomer, unassigned) [Example 19-4, 2-(6-Azaspiro[2.5]octan-6-yl)-N-(2-(4,4-difluoro-1-pieridinyl)-6-methyl-4-pyrimidinyl)-4-(R-ethylsulfonimidoyl)benzamide]
42	Cc1cc(NC(=O)c2ccc(NS(=O)(=O)C3CCOC3)cc2N2CCC3(CC2)CC3)nc(N2CC(F)(F)C2)n1 (stereo in doubt) [Example 11-71, (R)-N-(2-(3,3-Difluoroazetidin-1-yl)-6-methylpyrimidin-4-yl)-2-(6-azaspiro[2.5]octan-6-yl)-4-((tetrahydrofuran)-3-sulfonamido)benzamide]
79	Cc1cc(NC(=O)c2ccc(NS(=O)(=O)C3CCOC3)cc2N2CCC3(CC2)CC3)nc(N2CCC(F)(F)CC2)n1 (stereo in doubt) [Example 11-73, (R)-N-(2-(4,4-Difluoropiperidin-1-yl)-6-methylpyrimidin-4-yl)-2-(6-azaspiro[2.5]octan-6-yl)-4-((tetrahydrofuran)-3 sulfonamido)benzamide]
216	Cc1cc(NC(=O)c2ccc(S(C)(=O)=O)cc2N2CCC3(CC2)CC3)nc(N[C@H](C)CO)n1 [Example 1-1, (R)-N-(2-((1-Hydroxypropan-2-yl)amino)-6-methylpyrimidin-4-yl)-4-(methylsulfonyl)-2-(6-azaspiro[2.5]octan-6-yl)benzamide]
491	Cc1cc(NC(=O)c2ccc(S(C)(=O)=O)cc2N2CCC3(CC2)CC3)nc(N[C@@H](C)CO)n1 [Example 1-2, (S)-N-(2-((1-Hydroxypropan-2-yl)amino)-6-methylpyrimidin-4-yl)-4-(methylsulfonyl)-2-(6-azaspiro[2.5]octan-6-yl)benzamide]
849	Cc1cc(NC(=O)c2ccc(S(C)(=O)=O)cc2N2CCC3(CC2)CC3)nc(NCCO)n1 [Example 1-3, N-(2-((2-Hydroxyethyl)amino)-6-methylpyrimidin-4-yl)-4-(methylsulfonyl)-2-(6-azaspiro[2.5]octan-6-yl)benzamide]
580	Cc1cc(NC(=O)c2ccc(S(C)(=O)=O)cc2N2CCC3(CC2)CC3)nc(NC[C@@H](C)O)n1 [Example 1-4, (R)-N-(2-((2-Hydroxypropyl)amino)-6-methylpyrimidin-4-yl)-4-(methylsulfonyl)-2-(6-azaspiro[2.5]octan-6-yl)benzamide]
451	Cc1cc(NC(=O)c2ccc(S(C)(=O)=O)cc2N2CCC3(CC2)CC3)nc(NC[C@H](C)O)n1 [Example 1-5, (S)-N-(2-((2-Hydroxypropyl)amino)-6-methylpyrimidin-4-yl)-4-(methylsulfonyl)-2-(6-azaspiro[2.5]octan-6-yl)benzamide]
32	Cc1cc(NC(=O)c2ccc(S(=O)(=O)NC3(C)COC3)cc2N2CCC3(CC2)CC3)nc(OCCC(F)(F)F)n1 [Example 1-6, N-(6-Methyl-2-(3,3,3-trifluoropropoxy)pyrimidin-4-yl)-4-(N-(3-methyloxetan-3-yl)sulfamoyl)-2-(6-azaspiro[2.5]octan-6-yl)benzamide]
168	Cc1cc(NC(=O)c2ccc(S(=O)(=O)NC3(C)COC3)cc2N2CCC3(CC2)CC3)nc(NC(C)(C)CO)n1 [Example 1-7, N-(2-((1-Hydroxy-2-methylpropan-2-yl)amino)-6-methylpyrimidin-4-yl)-4-(N-(3-methyloxetan-3-yl)sulfamoyl)-2-(6-azaspiro[2.5]octan-6-yl)benzamide]
143	CC1(NS(=O)(=O)c2ccc(C(=O)Nc3ccnc(C(C)(C)O)n3)c(N3CCC4(CC3)CC4)c2)COC1 [Example 2, N-(2-(2-Hydroxypropan-2-yl)pyrimidin-4-yl)-4-(N-(3-methyloxetan-3-yl)sulfamoyl)-2-(6-azaspiro[2.5]octan-6-yl)benzamide]
65	Cc1cc(NC(=O)c2ccc(S(=O)(=O)NC3(C)COC3)cc2N2CCC3(CC2)CC3)nc(C(C)(C)O)n1 [Example 2-1, N-(2-(2-Hydroxypropan-2-yl)-6-methylpyrimidin-4-yl)-4-(N-(3-methyloxetan-3-yl)sulfamoyl)-2-(6-azaspiro[2.5]octan-6-yl)benzamide]
68	C[C@@H]1CN(c2nccc(NC(=O)c3ccc(S(=O)(=O)NC4(C)COC4)cc3N3CCC4(CC3)CC4)n2)CCO1 [Example 2-2, (R)-N-(2-(2-Methylmorpholino)pyrimidin-4-yl)-4-(N-(3-methyloxetan-3-yl)sulfamoyl)-2-(6-azaspiro[2.5]octan-6-yl)benzamide]
115	Cc1cc(NC(=O)c2ccc(S(=O)(=O)NC3(C)COC3)cc2N2CCC3(CC2)CC3)nc(N2CCO[C@H](C)C2)n1 [Example 2-3, (R)-N-(6-Methyl-2-(2-methylmorpholino)pyrimidin-4-yl)-4-(N-(3-methyloxetan-3-yl)sulfamoyl)-2-(6-azaspiro[2.5]octan-6-yl)benzamide]
29	CC1(NS(=O)(=O)c2ccc(C(=O)Nc3ccnc(N4CCC(F)(F)CC4)c3)c(N3CCC4(CC3)CC4)c2)COC1 [Example 2-4, N-(2-(4,4-Difluoropiperidin-1-yl)pyridin-4-yl)-4-(N-(3-methyloxetan-3-yl)sulfamoyl)-2-(6-azaspiro[2.5]octan-6-yl)benzamide]
103	Cc1cc(NC(=O)c2ccc(S(=O)(=O)NC3(C)COC3)cc2N2CCC3(CC2)CC3)nc(N2CCC(F)(F)CC2)n1 [Example 2-5, N-(2-(4,4-Difluoropiperidin-1-yl)-6-methylpyrimidin-4-yl)-4-(N-(3-methyloxetan-3-yl)sulfamoyl)-2-(6-azaspiro[2.5]octan-6-yl)benzamide]
